Key:
Format in all cases: in vivo, mouse
Dnmt3a^−/− HSCs = test: DSS gut injury in low-dose irradiated chimeric mice, with or without antibiotics pre-treatment
From the text: To model pre-leukemic clonal hematopoiesis, chimeric mice were generated as aas follows. Briefly, mixture of 1×10^6 whole bone marrow cells (WBM) were obtained from Poly (I:C) treated wild-type (Dnmt3a^+/+; MxCre^+, called Dnmt3a^WT) or mutant mice (Dnmt3a^f/f; MxCre^+, called Dnmt3a^KO) or double mutant mice (Dnmt3a^f/f; MxCre^+; Alpk1^KO, called Dnmt3a^KO; Alpk1^KO) (CD45.2^+), and transplanted into low-dose (2.5 Gy) irradiated recipient mice (CD45.1^+; 6-10 weeks of age). 8 weeks post-transplant, chimeric mice were treated with either water (H2O) or DSS (2.5%) for 1 week, and allowed to recover for 1 more week on water after which flow cytometry was performed on BM. In separate experiment, chimeric mice were pre-treated with broad spectrum antibiotics (ABX) for 4 weeks, and then subjected to DSS for 1 week after which flow cytometry performed on BM. In a separate set of experiment, chimeric mice were treated with either H2O or ADP-heptose (0.5 mg/kg) for 2 weeks, and flow cytometry performed after 2 more weeks on BM. […]
Mice were treated with 2.5% DSS (wt/vol) (MW: 36,000-50,000 Da, Cat No. 216011090, MP Biomedicals) in autoclaved drinking water to induce gut injury-associated colitis as mentioned before. […] Mice were monitored daily for weight loss, stool consistency, and the presence of frank blood in the stool. […]

[1] = Quantification of bacterial DNA (16S) in blood by real-time PCR; details: DSS-induced intestinal barrier dysfunction in mice
From the text: The previously described protocol to examine bacterial translocation into blood was used. (Luo, Z., et al. CRIg(+) Macrophages Prevent Gut Microbial DNA-Containing Extracellular Vesicle-Induced Tissue Inflammation and Insulin Resistance. Gastroenterology 160, 863-874 (2021); Tabuchi, Y., et al. Oral dextran sulfate sodium administration induces peripheral spondyloarthritis features in SKG mice accompanied by intestinal bacterial translocation and systemic Th1 and Th17 cell activation. Arthritis Res Ther 24, 176 (2022)) Whole blood was collected by cheek bleeding in sterile BD Microtainer Capillary Blood Collector and Microgard Closure tubes (Cat No. 13-680-62, Fisher Scientific) on ice from each mouse using Goldenrod Animal Lancets 4 mm (Cat No. NC9922361, Braintree Scientific), and genomic DNA extracted using DNeasy Blood & Tissue Kit (Cat No. 69504, Qiagen). qPCR was performed using Femto Bacterial DNA Quantification Kit (Cat. No. E2006, Zymo Research) according to the manufacturers' instructions. Samples with a Ct value more than 35 cycles or undetectable were counted as 0 μg/ml.

[2] = UHPLC-MS/MS measurement of ADP-heptose in plasma and BM; details: DSS-induced intestinal barrier dysfunction in mice
Method: To measure ADP-heptose, lysates were prepared as described previously. (Gaudet, R. G., et al. INNATE IMMUNITY. Cytosolic detection of the bacterial metabolite HBP activates TIFA-dependent innate immunity. Science 348, 1251-1255 (2015).) Briefly, bacterial culture suspensions of various mouse tissues and human plasma samples were first spun at 4000 g for 5 minutes. Next, pellets were suspended in 1 ml of sterile water. Bacterial cells were then lysed by heating at 95° C. for 15 minutes. Next, lysates were centrifuged at 4000 g for 3 minutes and supernatants filtered through a 0.20 μm syringe filter using 1 ml syringe and needle. Finally, lysates were stored at −80° C. until further processing for Mass Spectrometry. Following a previously established protocol, lysates were prepared. (Pfannkuch, L., et al. ADP heptose, a novel pathogen-associated molecular pattern identified in Helicobacter pylori. FASEB J 33, 9087-9099 (2019).) Briefly, 500 μl of the cleared bacterial lysate was thawed from −80° C. and extracted by addition of 1 ml chloroform/methanol (v:v 2:1) and vortexed and centrifuged (5 min, 10,000 g). […]
The concentration of ADP-heptose was determined using an ultrahigh-performance liquid chromatography-electrospray ionization-mass spectrometry (UHPLC-ESI-MS/MS) method by modifying our previously described protocol. […]

Substance: dextran sulfate sodium [DSS]
- expansion of Dnmt3a^−/− HSCs in the BM (Dnmt3a^−/− HSCs): significant expansion
- copies of 16S rRNA in the blood [1]: increased copies
- ADP-heptose in BM and PB plasma by mass spectrometry [2]: circulating ADP-heptose in the BM and PB plasma

Source: patent publication US20250314644A1, “METHODS COMPRISING DETECTION OF ADP-HEPTOSE” (CHILDREN'S HOSPITAL MEDICAL CENTER, priority 2023, published 2025)
